Measurements as given in ChEMBL document CHEMBL5137013 (Eur J Med Chem, 2022).
The source made the active and inactive calls. No cut-off for these calls is given here.

Columns and labels:
HeLa = assay: Cytotoxicity against human HeLa cells assessed as reduction in cell viability measured after 24 hrs by MTT assay; assay type: functional, cell-based
MCF7 = assay: Cytotoxicity against human MCF7 cells assessed as reduction in cell viability measured after 24 hrs by MTT assay; settings: MCF7, 24 h
HT-29 [1] = assay: Cytotoxicity against human HT-29 cells assessed as reduction in cell viability measured after 24 hrs by MTT assay; assay type: functional, cell-based; settings: HT-29, 24 h
A549 = assay: Cytotoxicity against human A549 cells assessed as reduction in cell viability measured after 24 hrs by MTT assay; settings: A549, 24 h
MDA-MB-231 = assay: Cytotoxicity against human MDA-MB-231 cells assessed as reduction in cell viability measured after 24 hrs by MTT assay; assay type: functional, cell-based; settings: MDA-MB-231, 24 h
[2] = Cytotoxicity against human MCF7/TxR cells assessed as reduction in cell viability measured after 24 hrs by MTT assay; assay type: functional, cell-based
HT-29 [3] = assay: Antitumor activity against human HT-29 cells xenografted in BALB/c nude mouse assessed as reduction in tumor weight at 10 mg/kg, ip administered as 2 days interval for 3 weeks and measured 3 weeks post-initial dosing relative to control; assay type: functional; parameters: scale not given: the % may be the effect or the level left
Sus scrofa = species on record: Sus scrofa; assay: […] of porcine brain tubulin polymerization at 5 uM measured at 1 min interval for 60 mins by fluorescence assay
[4] = Cytotoxicity against human A549/TxR cells assessed as reduction in cell viability measured after 24 hrs by MTT assay; assay type: functional, cell-based
[5] = Resistance index, ratio of IC50 for human A549/TxR cells to IC50 for human A549 cells; assay type: functional
HT-29 [6] = assay: Antitumor activity against human HT-29 cells xenografted in BALB/c nude mouse assessed as reduction in tumor weight at 20 mg/kg, ip administered as 2 days interval for 3 weeks and measured 3 weeks post-initial dosing relative to control; assay type: functional; parameters: scale not given: the % may be the effect or the level left
[7] = Inhibition of porcine brain tubulin polymerization measured at 1 min interval for 60 mins by fluorescence assay; parameters: species or system Sus scrofa
[8] = Resistance index, ratio of IC50 for human MCF7/TxR cells to IC50 for human MCF7 cells; assay type: functional

Activity (Sus scrofa) | SMILES | IC50 (HeLa) [µM] | IC50 (MCF7) [µM] | IC50 (HT-29 [1]) [µM] | IC50 (A549) [µM] | IC50 (MDA-MB-231) [µM] | IC50 [2] [µM] | Activity (HT-29 [3]) [%] | IC50 [4] [µM] | Ratio IC50 [5] | Activity (HT-29 [6]) [%] | IC50 [7] [µM] | Ratio IC50 [8]
 | COc1cc(Nc2cc3c(cc2C(=O)NN)OCCO3)cc(OC)c1OC | 0.32 | 0.37 | 0.13 | 0.74 | 0.36 |  |  |  |  |  |  | 
 | COC(=O)c1cc2c(cc1NC(=O)c1cc(Br)c(OC)c(Br)c1)OCCO2 | > 20 | > 20 | > 20 | > 20 | > 20 |  |  |  |  |  |  | 
 | COC(=O)c1cc2c(cc1Nc1ccc3c(c1)OCCO3)OCCO2 | 12.8 | 8.6 | 4.64 | 6.36 | 16.6 |  |  |  |  |  |  | 
 | COC(=O)c1cc(OC)c(OC)cc1Nc1cc(Br)c(OC)c(Br)c1 | > 20 | > 20 | > 20 | > 20 | > 20 |  |  |  |  |  |  | 
Active | CC(=O)O[C@H]1C(=O)[C@@]2(C)[C@H]([C@H](OC(=O)c3ccccc3)[C@]3(O)C[C@H](OC(=O)[C@H](O)[C@@H](NC(=O)c4ccccc4)c4ccccc4)C(C)=C1C3(C)C)[C@]1(OC(C)=O)CO[C@@H]1C[C@@H]2O [PACLITAXEL] | 0.039 |  | 0.011 |  | 0.007 | 8.35 | 77.1 | 2.92 |  |  |  | 
 | COC(=O)c1cc(OC)c(OC)cc1Nc1cc(OC)c(OC)c(OC)c1 | > 20 | > 20 | > 20 | > 20 | > 20 |  |  |  |  |  |  | 
 | COC(=O)c1cc2c(cc1Nc1cc(F)c(OC)c(F)c1)OCCO2 | 5.22 | > 20 | 4.47 | 1.55 | 4.1 |  |  |  |  |  |  | 
 | COc1cc2c(c(OC)c1OC)-c1ccc(OC)c(=O)cc1[C@@H](NC(C)=O)CC2 [COLCHICINE] | 0.008 |  | 0.25 | 0.031 | 0.097 |  |  |  |  |  |  | 
 | COc1c(F)cc(Nc2cc3c(cc2C(N)=O)OCCO3)cc1F | 6.12 | 12.2 | 0.86 | 2.21 | 1.7 |  |  |  |  |  |  | 
 | COC(=O)c1cc2c(cc1Nc1ccc(OC)c(OC)c1)OCCO2 | 2.11 | 11.3 | 0.55 | 1 | 5.46 |  |  |  |  |  |  | 
 | COc1cc(Nc2cc3c(cc2C(=O)O)OCO3)cc(OC)c1OC | 5.18 | 15.1 | 1.41 | 5.42 | 2.3 |  |  |  |  |  |  | 
 | COc1c(F)cc(Nc2cc3c(cc2C(=O)NN)OCCO3)cc1F | 2.56 | 15.4 | 1.31 | 1.2 | 5.92 |  |  |  |  |  |  | 
 | COc1ccc(/C=C\c2cc(OC)c(OC)c(OC)c2)cc1O [COMBRETASTATIN A4] | 0.007 | 0.009 | 0.43 | 0.046 | 0.013 | 0.017 |  | 0.096 | 2.1 | 17.4 | 1.21 | 1.8
 | COC(=O)c1cc2c(cc1Nc1cc(Br)c(OC)c(Br)c1)OCCO2 | 2.49 | 3.37 | 1.47 | 10.1 | 6.46 |  |  |  |  |  |  | 
 | COc1c(Br)cc(Nc2cc3c(cc2C(=O)O)OCO3)cc1Br | 6.9 | 16 | 3.13 | 15.9 | 5.6 |  |  |  |  |  |  | 
 | COc1cc(C(=O)Nc2cc3c(cc2C(=O)NN)OCCO3)cc(OC)c1OC | > 20 | > 20 | > 20 | > 20 | > 20 |  |  |  |  |  |  | 
 | COC(=O)c1cc2c(cc1Nc1cc(OC)c(OC)c(OC)c1)OCO2 | 0.39 | 0.98 | 0.38 | 2.67 | 0.74 |  |  |  |  |  |  | 
